Source: PubChem BioAssay AID1963863 (Molecular Pharmacology Branch, DTP, NCI, 2024)

Tested on: 931267-113-T-J1-PDC KRAS spheroid with HUVEC/MSC, viability
Assay: Anticancer human tumor 931267-113-T-J1-PDC patient-derived colon adenocarcinoma cell line growth inhibition [KRAS2]
Conditions: for IC50: curve of first compound; for viability, T/C: stronger effect = lower value
Summary of the method: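 KRAS-mutant tumor cells were grown as spheroids with HUVEC endothelial cells and human MSCs as stroma. Targeted agents were tested alone and with KRAS pathway inhibitors. Doses started at or near clinical Cmax, or 10 microM, descending half-log.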

[1] = second compound 0.1 µM, first compound 0.01 µM
[2] = second compound 0.1 µM, first compound 0.0316 µM
[3] = second compound 0.1 µM, first compound 0.1 µM
[4] = second compound 0.1 µM, first compound 0.316 µM
[5] = second compound 0.1 µM, first compound 1 µM
[6] = second compound 0.1 µM, first compound 3.16 µM
[7] = second compound 0.316 µM, first compound 0.01 µM
[8] = second compound 0.316 µM, first compound 0.0316 µM
[9] = second compound 0.316 µM, first compound 0.1 µM
[10] = second compound 0.316 µM, first compound 0.316 µM
[11] = second compound 0.316 µM, first compound 1 µM
[12] = second compound 0.316 µM, first compound 3.16 µM
[13] = second compound 1 µM, first compound 0.01 µM
[14] = second compound 1 µM, first compound 0.0316 µM
[15] = second compound 1 µM, first compound 0.1 µM
[16] = second compound 1 µM, first compound 0.316 µM
[17] = second compound 1 µM, first compound 1 µM
[18] = second compound 1 µM, first compound 3.16 µM
[19] = second compound 3.16 µM, first compound 0.01 µM
[20] = second compound 3.16 µM, first compound 0.0316 µM
[21] = second compound 3.16 µM, first compound 0.1 µM
[22] = second compound 3.16 µM, first compound 0.316 µM
[23] = second compound 3.16 µM, first compound 1 µM
[24] = second compound 3.16 µM, first compound 3.16 µM
[25] = second compound 10 µM, first compound 0.01 µM
[26] = second compound 10 µM, first compound 0.0316 µM
[27] = second compound 10 µM, first compound 0.1 µM
[28] = second compound 10 µM, first compound 0.316 µM
[29] = second compound 10 µM, first compound 1 µM
[30] = second compound 10 µM, first compound 3.16 µM
[31] = second compound 0.1 µM, first compound 10 µM
[32] = second compound 0.316 µM, first compound 10 µM
[33] = second compound 1 µM, first compound 10 µM
[34] = second compound 3.16 µM, first compound 10 µM
[35] = second compound 10 µM, first compound 10 µM
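Further: compound exposure lasted 7 days before the readout.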
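Wherever viability, T/C is given: 100% = DMSO vehicle control viability.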

CC1COCCN1c1cc(-c2ccnn2C)c2ccnc(-c3ccn[nH]3)c2n1 (stereo not given) + CNCc1ccccc1-c1csc(C(C)Nc2nc(C)nc3cc(OC)c(OC)cc23)c1
IC50 (second compound 0.1 µM): 49.6 nM
IC50 (second compound 0.316 µM): 46.6 nM
IC50 (second compound 1 µM): 27.8 nM
IC50 (second compound 3.16 µM): < 10 nM
IC50 (second compound 10 µM): < 10 nM
viability, T/C [1]: 87.4%
viability, T/C [2]: 64.9%
viability, T/C [3]: 27.4%
viability, T/C [4]: 11.4%
viability, T/C [5]: 17.1%
viability, T/C [6]: 18%
viability, T/C [7]: 80.2%
viability, T/C [8]: 64.9%
viability, T/C [9]: 20.6%
viability, T/C [10]: 14.7%
viability, T/C [11]: 16.9%
viability, T/C [12]: 15.3%
viability, T/C [13]: 58.3%
viability, T/C [14]: 48.8%
viability, T/C [15]: 19.8%
viability, T/C [16]: 7.5%
viability, T/C [17]: 10.8%
viability, T/C [18]: 6.12%
viability, T/C [19]: 0.07%
viability, T/C [20]: 0.07%
viability, T/C [21]: 0.05%
viability, T/C [22]: 0.04%
viability, T/C [23]: 0.05%
viability, T/C [24]: 0.14%
viability, T/C [25]: 0.16%
viability, T/C [26]: 0.09%
viability, T/C [27]: 0.1%
viability, T/C [28]: 0.1%
viability, T/C [29]: 0.11%
viability, T/C [30]: 1.06%

CC1OCC2(CCN(c3cnc(Sc4ccnc(N)c4Cl)c(N)n3)CC2)C1N (stereo not given) + CNCc1ccccc1-c1csc(C(C)Nc2nc(C)nc3cc(OC)c(OC)cc23)c1
IC50 (second compound 0.1 µM): > 10000 nM
IC50 (second compound 0.316 µM): > 10000 nM
IC50 (second compound 1 µM): 31.6 nM
IC50 (second compound 3.16 µM): < 31.6 nM
IC50 (second compound 10 µM): < 31.6 nM
viability, T/C [2]: 96.8%
viability, T/C [3]: 70.7%
viability, T/C [4]: 66.5%
viability, T/C [5]: 68.3%
viability, T/C [6]: 61.1%
viability, T/C [31]: 59.8%
viability, T/C [8]: 88.6%
viability, T/C [9]: 89.3%
viability, T/C [10]: 72%
viability, T/C [11]: 63.2%
viability, T/C [12]: 78.8%
viability, T/C [32]: 81.8%
viability, T/C [14]: 51.3%
viability, T/C [15]: 44.8%
viability, T/C [16]: 54.2%
viability, T/C [17]: 33.1%
viability, T/C [18]: 33.2%
viability, T/C [33]: 27.5%
viability, T/C [20]: 0.09%
viability, T/C [21]: 0.09%
viability, T/C [22]: 0.08%
viability, T/C [23]: 0.08%
viability, T/C [24]: 0.08%
viability, T/C [34]: 0.17%
viability, T/C [26]: 0.12%
viability, T/C [27]: 0.19%
viability, T/C [28]: 0.13%
viability, T/C [29]: 0.13%
viability, T/C [30]: 0.12%
viability, T/C [35]: 0.17%

Cn1nccc1Nc1nccc(-c2cc3c(s2)C(C)(C)N(CCN2CCOCC2)C3=O)n1 + CNCc1ccccc1-c1csc(C(C)Nc2nc(C)nc3cc(OC)c(OC)cc23)c1
IC50 (second compound 0.1 µM): 323 nM
IC50 (second compound 0.316 µM): 433 nM
IC50 (second compound 1 µM): 88.4 nM
IC50 (second compound 3.16 µM): < 31.6 nM
IC50 (second compound 10 µM): < 31.6 nM
viability, T/C [2]: 73.6%
viability, T/C [3]: 71.3%
viability, T/C [4]: 44.5%
viability, T/C [5]: 34.1%
viability, T/C [6]: 6.18%
viability, T/C [31]: 2.96%
viability, T/C [8]: 76.4%
viability, T/C [9]: 75.4%
viability, T/C [10]: 60.6%
viability, T/C [11]: 21.4%
viability, T/C [12]: 4.19%
viability, T/C [32]: 1.79%
viability, T/C [14]: 56.5%
viability, T/C [15]: 51%
viability, T/C [16]: 26.6%
viability, T/C [17]: 11.2%
viability, T/C [18]: 0.39%
viability, T/C [33]: 0.15%
viability, T/C [20]: 0.1%
viability, T/C [21]: 0.09%
viability, T/C [22]: 0.08%
viability, T/C [23]: 0.11%
viability, T/C [24]: 0.04%
viability, T/C [34]: 0.11%
viability, T/C [26]: 0.11%
viability, T/C [27]: 0.13%
viability, T/C [28]: 0.13%
viability, T/C [29]: 0.11%
viability, T/C [30]: 0.11%
viability, T/C [35]: 0.42%

CC(=O)OC12COC1CC(O)C1(C)C(=O)C(O)C3=C(C)C(OC(=O)C(O)C(NC(=O)OC(C)(C)C)c4ccccc4)CC(O)(C(OC(=O)c4ccccc4)C21)C3(C)C (stereo not given) + COc1cc2nc(C)nc(NC(C)c3cc(N)cc(C(F)(F)F)c3)c2cc1OC1CCOC1
IC50 (second compound 0.1 µM): > 3160 nM
IC50 (second compound 0.316 µM): > 3160 nM
IC50 (second compound 1 µM): > 3160 nM
IC50 (second compound 3.16 µM): > 3160 nM
IC50 (second compound 10 µM): > 3160 nM
viability, T/C [1]: 84.9%
viability, T/C [2]: 77.7%
viability, T/C [3]: 81.3%
viability, T/C [4]: 83.7%
viability, T/C [5]: 92.4%
viability, T/C [6]: 106%
viability, T/C [7]: 88%
viability, T/C [8]: 76.3%
viability, T/C [9]: 92%
viability, T/C [10]: 76.7%
viability, T/C [11]: 82.6%
viability, T/C [12]: 72.1%
viability, T/C [13]: 95%
viability, T/C [14]: 105%
viability, T/C [15]: 88.2%
viability, T/C [16]: 88%
viability, T/C [17]: 96.7%
viability, T/C [18]: 56.9%
viability, T/C [19]: 90%
viability, T/C [20]: 107%
viability, T/C [21]: 76.5%
viability, T/C [22]: 83.9%
viability, T/C [23]: 83.8%
viability, T/C [24]: 84.9%
viability, T/C [25]: 98%
viability, T/C [26]: 110%
viability, T/C [27]: 96.2%
viability, T/C [28]: 84.3%
viability, T/C [29]: 72.5%
viability, T/C [30]: 92%
